Where “and” joins values, the source holds several entries; their conditions need not be identical. Equal values may be shown once. Read-outs that look alike come from different tables or passages of the source.
Columns and labels:
[1] = tested on: breast (MCF-7) cancer cell line; design: method as in Voigtlaender et al., 2018; details: ref Voigtlaender et al., 2018, cited from earlier work; for IC50: read-out: IC50 against the MCF-7 cell line
[2] = tested on: panel of cancer cell lines; design: method as in Voigtlaender et al., 2018; details: ref Voigtlaender et al., 2018; read-out: GI50 against a panel of cancer cell lines; cited from earlier work
[3] = tested on: lung (A-549) cancer cell line; assay: Antiproliferative assay, A-549; type: cell-based; details: Homo sapiens, A549; read-out: Antiproliferative activity IC50 ± SEM, A-549
Source text: (§1) The MTT assay ([Al-Wahaibi et al., 2022]; [Mahmoud et al., 2023]) was employed to assess the antiproliferative effects of compounds 3a-h and 5a-g on four human cancer cell lines: colon (HT-29) cancer, pancreatic (Panc-1) cancer, lung (A-549) cancer, and breast (MCF-7) cancer cell lines. Erlotinib was applied as a reference. Table 1 presents the median inhibitory concentration (IC50) and average IC50 (GI50) values for each compound evaluated on the four cancer cell lines.
(§2) Compounds 3a-h and 5a-g were tested for their antiproliferative activities on four human cancer cell lines: colon (HT-29), pancreatic (Panc-1), lung (A-549), and breast (MCF-7) using the MTT assay ([Al-Wahaibi et al., 2022]; [Mahmoud et al., 2023]). Erlotinib was applied as a reference.
(§3) To explore the antiproliferative potential of compounds propidium iodide fluorescence assay was performed using different cell lines such as Panc-1 (pancreas cancer cell line), MCF-7 (breast cancer cell line), HT-29 (colon cancer cell line) and A-549 (epithelial cancer cell line), respectively. To calculate the total nuclear DNA, a fluorescent dye (propidium iodide, PI) is used which can attach to the DNA, thus offering a quick and precise technique. PI cannot pass through the cell membrane and its signal intensity can be considered as directly proportional to quantity of cellular DNA. Cells whose cell membranes are damaged or have changed permeability are counted as dead ones. The assay was performed by seeding the cells of different cell lines at a density of 3000-7500 cells/well (in 200μl medium) in culture plates followed by incubation for 24h at 37 °C in humidified 5%CO2/95% air atmospheric conditions. The medium was removed; the compounds were added to the plates at 10 μM concentrations (in 0.1% DMSO) in triplicates, followed by incubation for 48h. DMSO (0.1%) was used as control. After incubation, medium was removed followed by the addition of PI (25 μl, 50μg/mL in water/medium) to each well of the plates. At -80 °C, the plates were allowed to freeze for 24 h, followed by thawing at 25 °C. A fluorometer (Polar-Star BMG Tech) was used to record the readings at excitation and emission wavelengths of 530 and 620 nm for each well. The percentage cytotoxicity of compounds was calculated using the following formula: […]

[4] = tested on: breast (MCF-7) cancer cell line; assay: Antiproliferative assay, MCF-7; type: cell-based; details: Homo sapiens, MCF7; read-out: Antiproliferative activity IC50 ± SEM, MCF-7
Source text: as §1, §2, §3

[5] = tested on: pancreatic (Panc-1) cancer cell line; assay: Antiproliferative assay, Panc-1; type: cell-based; details: Homo sapiens, read-out: Antiproliferative activity IC50 ± SEM, Panc-1
Source text: as §1, §2, §3

[6] = tested on: colon (HT-29) cancer cell line; assay: Antiproliferative assay, HT-29; type: cell-based; details: Homo sapiens, read-out: Antiproliferative activity IC50 ± SEM, HT-29
[7] = tested on: Caspase-3; assay: Caspase-3 activation assay; type: cell-based, human; details: MCF-7 cells; for Caspase-3 Fold change: versus control
Description: (§4) Refer to Supplementary Appendix A.
Allow all reagents to reach room temperature before use. Gently mix all liquid reagents prior to use. Determine the number of 8-well strips needed for the assay. Insert these in the frame(s) for current use. Add 100 μl of the Standard Diluent Buffer to the zero standard wells. Well(s) reserved for chromogen blank should be left empty. Add 100 μl of standards and controls or diluted samples to the appropriate microtiter wells. The sample dilution chosen should be optimized for each experimental system. Tap gently on side of plate to mix. Cover wells with plate cover and incubate for 2 hours at room temperature. Thoroughly aspirate or decant solution from wells and discard the liquid, Wash wells 4 times. […] Tap gently on the side of the plate to mix. Cover plate with plate cover and incubate for 1 hour at room temperature. Thoroughly aspirate or decant solution from wells and discard the liquid, Wash wells 4 times. Add 100 μl Anti-Rabbit IgG HRP Working Solution to each well except the chromogen blank(s). Prepare the working dilution as described in Preparing IgG HRP. Cover wells with the plate cover and incubate for 30 minutes at room temperature. Thoroughly aspirate or decant solution from wells and discard the liquid. Wash wells 4 times. Add 100 μl of Stabilized Chromogen to each well. The liquid in the wells will begin to turn blue. Incubate for 30 minutes at room temperature and in the dark. The incubation time for chromogen substrate is often determined by the microtiter plate reader used. Many plate readers have the capacity to record a maximum optical density (O.D.) of 2.0. The O.D. values should be monitored, and the substrate reaction stopped before the O.D. of the positive wells exceeds the limits of the instrument. The O.D. values at 450 nm can only be read after the Stop Solution has been added to each well. […] Add 100 μl of Stop Solution to each well. Tap side of plate gently to mix. The solution in the wells should change from blue to yellow. Read the absorbance of each well at 450 nm having blanked the plate reader against a chromogen blank composed of 100 μl each of Stabilized Chromogen and Stop Solution. Read the plate within 2 hours after adding the Stop Solution. Use a curve fitting software to generate the standard curve. […] Read the concentrations for unknown samples and controls from the standard curve. Multiply value(s) obtained for sample(s) by the appropriate dilution factor to correct for the dilution in step 3.

[8] = tested on: Bax; assay: Bax level assay; details: MCF-7 cells; for Bax Fold change: versus control
Description: Bring all reagents, except the human Bax-α Standard, to room temperature for at least 30 minutes prior to opening. The human Bax-α Standard solution should not be left at room temperature for more than 10 minutes. All standards, controls and samples should be run in duplicate. Refer to the Assay Layout Sheet to determine the number of wells to be used and put any remaining wells with the desiccant back into the pouch and seal the ziploc. Store unused wells at 4 °C. Pipet 100 μL of Assay Buffer into the S0 (0 pg/mL standard) wells. Pipet 100 μL of Standards #1 through #6 into the appropriate wells. Pipet 100 μL of the Samples into the appropriate wells. Tap the plate gently to mix the contents. Seal the plate and incubate at room temperature on a plate shaker for 1 hour at ~500 rpm. Empty the contents of the wells and wash by adding 400 μL of wash solution to every well. Repeat the wash 4 more times for a total of 5 washes. After the final wash, empty or aspirate the wells and firmly tap the plate on a lint free paper towel to remove any remaining wash buffer. Pipet 100 μL of yellow Antibody into each well, except the Blank. Seal the plate and incubate at room temperature on a plate shaker for 1 hour at ~500 rpm. Empty the contents of the wells and wash by adding 400 μL of wash solution to every well. Repeat the wash 4 more times for a total of 5 washes. After the final wash, empty or aspirate the wells and firmly tap the plate on a lint free paper towel to remove any remaining wash buffer. Add 100 μL of blue Conjugate to each well, except the Blank. Seal the plate and incubate at room temperature on a plate shaker for 30 minutes at ~500 rpm. Empty the contents of the wells and wash by adding 400 μL of wash solution to every well. Repeat the wash 4 more times for a total of 5 washes. After the final wash, empty or aspirate the wells and firmly tap the plate on a lint free paper towel to remove any remaining wash buffer. Pipet 100 μL of Substrate Solution into each well. Incubate for 30 minutes at room temperature on a plate shaker at ~500 rpm. Pipet 100 μL Stop Solution to each well. Blank the plate reader against the Blank wells, read the optical density at 450 nm. Calculate the average net Optical Density (OD) bound for each standard and sample by subtracting the average Blank OD from the average OD for each standard and sample. Using linear graph paper, plot the Average Net OD for each standard versus Bax concentration in each standard. Approximate a straight line through the points. The concentration of Bax in the unknowns can be determined by interpolation.

[9] = tested on: Caspase-9; assay: Caspase-9 activation assay; type: cell-based, human; details: MCF-7 cells; for Caspase-9 Fold change: versus control
Description: To elucidate the apoptotic mechanism of compounds 3d and 5a, whether via the intrinsic or extrinsic pathway, their impact on caspase-8 and caspase-9 was evaluated.
RPMI 1640 with 10% FBS was used to assist the cells grow at 37 °C, and then the cells were treated with the compounds being studied to check the activity of caspase-3, -8, and -9 ([Hisham et al., 2019]). Refer to Supplementary Appendix A.
Cells were obtained from American Type Culture Collection, cells were grown in RPMI 1640 containing 10% fetal bovine serum at 37°C, stimulated with the compounds to be tested for caspase8, and lysed with Cell Extraction Buffer. This lysate was diluted in Standard Diluent Buffer over the range of the assay and measured for human active caspase-8 content. (Cells are Plated in a density of 1.2 – 1.8 × 10,000 cells/well in a volume of 100µl complete growth medium + 100 ul of the tested compound per well in a 96-well plate for 24 hours before the enzyme assay for Tubulin.). The absorbance of each microwell was read on a spectro-photometer at 450 nm. A standard curve is prepared from 7human Caspase-8 standard dilutions and human Caspase-8 concentration determined.

[10] = biological target: EGFR (Homo sapiens, UniProt P00533); assay: EGFR inhibitory assay (EGFR-TK test); details: EGFR inhibition IC50 ± SEM
Sequence of EGFR (P00533 669-1210): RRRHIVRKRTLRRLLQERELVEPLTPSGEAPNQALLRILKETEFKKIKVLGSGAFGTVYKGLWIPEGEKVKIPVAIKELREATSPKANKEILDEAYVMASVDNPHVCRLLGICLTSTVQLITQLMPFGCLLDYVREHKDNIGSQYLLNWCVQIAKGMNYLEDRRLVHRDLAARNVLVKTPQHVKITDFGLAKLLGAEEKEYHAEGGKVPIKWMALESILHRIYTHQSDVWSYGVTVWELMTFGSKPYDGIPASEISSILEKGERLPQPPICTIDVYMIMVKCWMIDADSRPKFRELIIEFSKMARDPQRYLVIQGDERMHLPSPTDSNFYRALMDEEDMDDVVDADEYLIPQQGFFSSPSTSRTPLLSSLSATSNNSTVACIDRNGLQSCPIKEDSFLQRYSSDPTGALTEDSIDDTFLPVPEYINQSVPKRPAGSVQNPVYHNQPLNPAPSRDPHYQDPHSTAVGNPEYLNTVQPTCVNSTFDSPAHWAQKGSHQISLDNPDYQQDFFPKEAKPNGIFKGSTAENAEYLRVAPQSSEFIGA
Description: 5ʹ upstream to the EGFR sequence comprised a sequence that encoded (His)6. Sf-9 cells were infected for 72h for protein expression. The pellets of Sf-9 cells were solubilized in a buffer containing sodium vanadate (100 μM), aprotinin (10 μg/mL), triton (1%), HEPES buffer(50mM), ammonium molybdate (10 μM), benzamidine HCl (16 μg/mL), NaCl (10 mM),leupeptin (10 μg/mL) and pepstatin (10 μg/mL) at 0°C for 20 min at pH 7.4, followed by centrifugation for 20 min. To eliminate the nonspecifically bound material, a Ni-NTA super flow packed column was used to pass through and wash the crude extract supernatant first with 10mM and then with 100 mM imidazole. Histidine-linked proteins were first eluted with 250 and then with 500 mM imidazole subsequent to dialysis against NaCl (50 mM), HEPES (20 mM), glycerol (10%) and 1 μg/mL each of aprotinin, leupeptin and pepstatin for 120 min. The purification was performed either at 4 °C or on ice. To record autophosphorylation level, EGFR kinase assay was carried out on the basis of DELFIA/Time-Resolved Fluorometry. […] Each compound (10 μL) was incubated with recombinant enzyme (10 μL, 5 ng for EGFR, 1:80 dilution in 100 mM HEPES) for 10 min at 25 °C, subsequent to the addition of 5X buffer (10 μL, containing 2 mM MnCl2, 100 μM Na3VO4, 20 mM HEPES and 1 mM DTT) and ATP-MgCl2 (20 μL, containing 0.1 mM ATP and 50 mM MgCl2) and incubation for 1h. The negative and positive controls were included in each plate by the incubation of enzyme either with or without ATP-MgCl2. The liquid was removed after incubation and the plates were washed thrice using a wash buffer. The Europium-tagged antiphosphotyrosine antibody (75 μL, 400 ng) was added to each well followed by incubation of 1h and then washing of the plates using buffer. […] The autophosphorylation percentage inhibition by compounds was calculated using the following equation:
The majority of signals detected by antiphosphotyrosine antibody were from EGFR because the enzyme preparation contained low impurities.

[11] = Cell viability assay (MTT), normal mammary cells; details: human, MCF-10A normal mammary epithelial cells
Description: (§5) MTT assay was performed to investigate the effect of the synthesized compounds on mammary epithelial cells (MCF-10A). The cells were propagated in medium consisting of Ham's F-12 medium/ Dulbecco's modified Eagle's medium (DMEM) (1:1) supplemented with 10% foetal calf serum, 2 mM glutamine, insulin (10 μg/mL), hydrocortisone (500 ng/mL) and epidermal growth factor (20 ng/mL). Trypsin ethylenediamine tetra acetic acid (EDTA) was used to passage the cells after every 2-3 days. 96-well flat-bottomed cell culture plates were used to seed the cells at a density of 10^4 cells mL^-1. The medium was aspirated from all the wells of culture plates after 24 h followed by the addition of synthesized compounds (in 200 μL medium to yield a final concentration of 0.1% (v/v) dimethyl sulfoxide) into individual wells of the plates. Four wells were designated to a single compound. The plates were allowed to incubate at 37°C for 96 h. Afterwards, the medium was aspirated and 3-[4,5-dimethylthiazol-2-yl]-2,5-diphenyltetrazolium bromide (MTT) (0.4 mg/mL) in medium was added to each well and subsequently incubated for 3 h. The medium was aspirated and 150 μL dimethyl sulfoxide (DMSO) was added to each well. The plates were vortexed followed by the measurement of absorbance at 540 nm on a microplate reader.

[12] = tested on: Cytochrome C; assay: Cytochrome C assay; details: MCF-7 cells; for Cytochrome C Fold change: versus control
Description: This lysate was diluted in Standard Diluent Buffer over the range of the assay and measured for cytochrome C content. (Cells are Plated in cells/well in a volume of 100µl complete growth medium + 100 µl of the tested compound + 50 µl of 1X biotin conjugated antibody+ 100 µl of 1X streptavidin-HRP+ 100 µL TMB substrate solution of per well in a 96-well plate for 24 hours before assay).

[13] = tested on: Bcl-2; assay: Bcl-2 level assay; details: MCF-7 cells; for Bcl-2 Fold reduction: versus control
Description: Mix all reagents thoroughly without foaming before use. Wash the microwells twice with approximately 300 μL Wash Buffer per well with thorough aspiration of microwell contents between washes. Take caution not to scratch the surface of the microwells. After the last wash, empty the wells and tap microwell strips on absorbent pad or paper towel to remove excess Wash Buffer. Use the microwell strips immediately after washing or place upside down on a wet absorbent paper for not longer than 15 minutes. […] Add 100 μL of Sample Diluent in duplicate to all standard wells and to the blank wells. […] Add 100 μL of Sample Diluent, in duplicate, to the blank wells. Add 80 μL of Sample Diluent, in duplicate, to the sample wells. Add 20 μL of each Sample, in duplicate, to the designated wells. Add 50 μL of diluted biotin-conjugate to all wells, including the blank wells. Cover with a plate cover and incubate at room temperature, on a microplate shaker at 100 rpm if available, for 2 hours. Remove plate cover and empty the wells. Wash microwell strips 3 times as described in step 2. Add 100 μL of diluted Streptavidin-HRP to all wells, including the blank wells. Cover with a plate cover and incubate at room temperature, on a microplate shaker at 100 rpm if available, for 1 hour. Remove plate cover and empty the wells. Wash microwell strips 3 times as described in step 2. […] Pipette 100 μl of mixed TMB Substrate Solution to all wells, including the blanks. Incubate the microwell strips at room temperature (18° to 25°C) for about 15 minutes, if available on a rotator set at 100 rpm. Avoid direct exposure to intense light. The point, at which the substrate reaction is stopped, is often determined by the ELISA reader. Many ELISA readers record absorbance only up to 2.0 O.D. Therefore, the color development within individual microwells must be watched by the person running the assay and the substrate reaction stopped before positive wells are no longer properly detectable. Stop the enzyme reaction by quickly pipetting 100 μL of Stop Solution into each well, including the blank wells. It is important that the Stop Solution is spread quickly and uniformly throughout the microwells to completely inactivate the enzyme. Results must be read immediately after the Stop Solution is added or within one hour if the microwell strips are stored at 2 - 8°C in the dark. Read absorbance of each microwell on a spectrophotometer using 450 nm as the primary wavelength.

[14] = tested on: four human cancer cell lines (A-549, MCF-7, Panc-1, HT-29); assay: Antiproliferative assay, average over four cancer cell lines; type: cell-based; details: for GI50: Homo sapiens, average IC50 over the four cancer cell lines
[15] = tested on: Caspase-8; assay: Caspase-8 activation assay; type: cell-based, human; details: MCF-7 cells; for Caspase-8 Fold change: versus control
Description: as §4
(Cells are Plated in a density of 1.2 – 1.8 × 10,000 cells/well in a volume of 100µl complete growth medium + 100 ul of the tested compound per well in a 96-well plate for 24 hours before the enzyme assay for Tubulin.). The absorbance of each microwell was read on a spectro-photometer at 450 nm. A standard curve is prepared from 7human Caspase-8 standard dilutions and human Caspase-8 concentration determined.

[16] = biological target: HER-2 (Homo sapiens, UniProt P04626); assay: HER-2 inhibitory assay (ADP-Glo kinase assay)
Sequence of HER-2 (P04626 676-1255 limits assumed): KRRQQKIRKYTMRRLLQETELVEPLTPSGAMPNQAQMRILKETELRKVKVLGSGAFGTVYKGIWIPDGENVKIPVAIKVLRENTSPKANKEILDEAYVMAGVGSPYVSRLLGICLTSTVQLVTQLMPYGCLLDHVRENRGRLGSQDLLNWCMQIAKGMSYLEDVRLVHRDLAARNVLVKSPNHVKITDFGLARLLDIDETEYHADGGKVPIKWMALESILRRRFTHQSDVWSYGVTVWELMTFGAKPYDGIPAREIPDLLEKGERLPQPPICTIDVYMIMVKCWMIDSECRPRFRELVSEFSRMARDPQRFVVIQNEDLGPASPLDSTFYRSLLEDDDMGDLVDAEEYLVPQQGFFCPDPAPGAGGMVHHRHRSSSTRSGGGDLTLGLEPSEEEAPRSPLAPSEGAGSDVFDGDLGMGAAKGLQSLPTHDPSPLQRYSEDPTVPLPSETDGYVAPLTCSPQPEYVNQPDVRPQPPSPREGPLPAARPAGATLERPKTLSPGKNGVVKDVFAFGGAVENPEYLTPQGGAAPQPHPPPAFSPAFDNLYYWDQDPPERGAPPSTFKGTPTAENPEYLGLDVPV
Description: The ADP-Glo™ Kinase Assay was used for kinase activity detection, related kinases information: HER-2 (ab60866, Abcam), with a concentration of 100 ng/mL. Target compounds were dissolved in DMSO to obtain drug solutions with different concentrations, and the compound concentrations in the final reaction system (100 μL) were 1 nM, 20 nM, 40 nM, 80 nM, and 100 nM, respectively. 10μL of the solution containing compounds was transferred to a 96-well plate, then added 40 μL of 1 × kinase buffer (50 mM HEPES, pH 7.5) to each well, and mixed the mixture in the 96-well plate on a shaker for 10 min. Next, added 25 μL of ADP-Glo™ reagent to the above wells, mixed and incubated for another 40 min. Distributed 10 μL kinase detection reagent to the reaction and incubated for 30 min. Finally, the full-wavelength microplate reader was used to record the OD value.

[17] = in vitro; details: human
Description: as §5

[18] = tested on: MCF-7 human breast cancer cell line; assay: Flow cytometric cell cycle analysis; type: cell-based

Structure (SMILES)	IC50 [1] [µM]	IC50 [3] [µM]	IC50 [4] [µM]	IC50 [5] [µM]	IC50 [6] [µM]	Caspase-3 Conc [7] [pg/mL]	Caspase-3 Fold change [7]	Bax Conc [8]	Bax Fold change [8]	Caspase-9 Conc [9] [ng/mL]	Caspase-9 Fold change [9]	IC50 [10] [µM]	Cytochrome C Conc [12] [ng/mL]	Cytochrome C Fold change [12]	Bcl-2 Conc [13] [ng/mL]	Bcl-2 Fold reduction [13]	GI50 [14] [µM]	Caspase-8 Conc [15] [ng/mL]	Caspase-8 Fold change [15]	IC50 [16] [µM]	other results
O=c1[nH]c2ccccc2c(O)c1/C=N/c1ccc(NS(=O)(=O)c2ncccn2)cc1 [Compound III]	0.023	–	–	–	–	–	–	–	–	–	–	–	–	–	–	–	–	–	–	–	Times more potent than erlotinib, MCF-7 ([1]; ratio of IC50 values): 1.8; GI50 [2]: 0.025 µM
C#Cc1cccc(Nc2ncnc3cc(OCCOC)c(OCCOC)cc23)c1 [Erlotinib, reference compound]	0.04	0.03 ± 0.003	0.04 ± 0.003	0.03 ± 0.003	0.03 ± 0.003	–	–	–	–	–	–	–	–	–	–	–	–	–	–	–	–
Cc1ccc(S(=O)(=O)N/N=C/c2c(O)c3ccccc3[nH]c2=O)cc1 [Compound 3d, (E)-N'-((4-hydroxy-2-oxo-1,2-dihydroquinolin-3-yl)methylene)-4-methyl benzenesulfonohydrazide]	–	0.04 ± 0.003	0.037 ± 0.003	0.043 ± 0.004	0.042 ± 0.004	515 ± 5	8.0	310 pg/mL and 310 ± 2 pg/mL	34	21 ± 3	21	0.091 ± 0.006	0.65	13	0.80	6	0.041	2.10 ± 0.20	23	0.038 ± 0.002	viability at 4 days, 50 µM [11]: 91%; Fold less effective than erlotinib (GI50) ([14]; ratio to erlotinib GI50 = […] nM): 1.3
O=c1[nH]c2ccccc2c(O)c1/C=N/Nc1ccc([N+](=O)[O-])cc1[N+](=O)[O-] [Compound 5a, (E)-3-((2-(2,4-Dinitrophenyl)hydrazono)methyl)-4-hydroxyquinolin-2(1H)-one]	–	0.036 ± 0.003	0.034 ± 0.003	0.038 ± 0.003	0.038 ± 0.003	570 ± 5	9.0	320 pg/mL and 320 ± 2 pg/mL	35	24 ± 1	24	0.087 ± 0.005	0.85	17	0.70	7	0.037	2.65 ± 0.25	29	0.033 ± 0.002	viability at 4 days, 50 µM [17]: 88%; Percentage of cells in G2/M phase [18]: 1.94%; Percentage of cells in S phase ([18]; control 26.82%): 15.65%; Fold less effective than erlotinib (GI50) [14]: 1.2; Times less potent than lapatinib, HER-2 inhibition ([16]; ratio to lapatinib IC50): 1.3
